One data set deals with HSV-2 strain 91075. As to the kind of experiment: Treatment of a systemic HSV-2 infection in mice (mortality). Format: in vivo. The following applies: oral; for Mortality (%) day 6 / Mortality (%) day 9 / Mortality (%) day 12 / Mortality (%) day 15: twice daily for ten days; for Mortality (%) day 6: day 6 post infection; for Mortality (%) day 9: day 9 post infection; for Mortality (%) day 12: day 12 post infection; for Mortality (%) day 15: day 15 post infection. On the procedure:
In the following the compound (R)-(+)-9-(3,4-dihydroxybutyl)guanine is denoted VIS 743, the compound (R)-2-amino-9-(3,4-dihydroxybutyl)purine is denoted VSA 305 and Herpes simplex type 2 virus is denoted HSV-2. Mice infected systemically with HSV-2 strain 91075 (10^4 pfu infected i.p.) were treated orally with VIS 743 or VSA 305 twice daily for ten days. Treatment started 1 hour post infection. Mortality was determined on several days post infection.

Data set [1] is described as follows: Plasma concentration of VIS 743 in mice after giving VIS 743 or VSA 305 orally. The following applies: 15 mg/kg p.o. Format: in vivo. The method, then: Mice were given VIS 743 or VSA 305 p.o. Each compound was given in a dosage of 15 mg/kg. The plasma concentrations of VIS 743 were determined by analysis on HPLC, 30, 60, 90 and 120 min after dosage. Each concentration was determined as an average of results from two mice.

In the case of `Nc1nc2c(ncn2CC[C@@H](O)CO)c(=O)[nH]1` [VIS 743, (R)-(+)-9-(3,4-dihydroxybutyl)guanine], in the data set with HSV-2 strain 91075 (15 mg/kg), the “Mortality (%) day 6” value was found to be 40%, the “Mortality (%) day 9” value is 80%, the “Mortality (%) day 12” value turned out to be 100% and the “Mortality (%) day 15” value stood at 100%. Besides, in the data set on HSV-2 strain 91075 (30 mg/kg), the “Mortality (%) day 6” value amounted to 0%, the “Mortality (%) day 9” value is 28%, the “Mortality (%) day 12” value is on record as 45% and the “Mortality (%) day 15” value is listed as 53%.

For the compound `Nc1ncc2ncn(CC[C@@H](O)CO)c2n1` [VSA 305, (R)-2-amino-9-(3,4-dihydroxybutyl)purine], in the data set with HSV-2 strain 91075 (15 mg/kg), the “Mortality (%) day 6” value was found to be 0%, the “Mortality (%) day 9” value is recorded as 45%, the “Mortality (%) day 12” value is recorded as 50% and the “Mortality (%) day 15” value was found to be 53%. Also, the “effect of a low dose (15 mg/kg) compared with a high dose of VIS 743 (30 mg/kg)” value with HSV-2 strain 91075 (VSA 305 15 mg/kg vs VIS 743 30 mg/kg) is recorded as “comparable”. Besides, the “biological transformation to VIS 743” value in data set [1] is on record as “biologically transformed to VIS 743”.

(Values after patent US5036071A, “Derivatives of purine” (Medivir AB, priority 1984, dated 1991).)
